Laboratory results: US8895313B2, “Ligands for aggregated tau molecules” (Wista Laboratories Ltd., priority 2008, dated 2014)

Target: PHF (paired helical filaments) isolated from the brain of an Alzheimer's disease patient (Homo sapiens, UniProt P10636)
Assay: Competitive binding assay: displacement of primulin fluorescence from PHFs
Details: concentration that reduces the signal of 1 μM primulin to 50% of control, relative affinity; for IC50: read-out: P50
Experimental: The DSB compounds were tested for their ability to bind to PHF in a competition-style assay.
If a test compound that also binds to PHFs with the same or greater affinity is added, it will displace the reference ligand and reduce the fluorescence signal. In the present assay, the reference compound is primulin, which was added at 1 μM. Test compounds were added at concentrations from 0.05 to 1 μM. The P50 for a test compound is defined as the concentration of compound that reduces the primulin signal to 50% of the control value. This value is, therefore, not an absolute affinity, but a relative affinity compared to the affinity of primulin.
PHFs were isolated from the brain of an Alzheimer's disease patient essentially as described by Wischik et al. (Neurobiology of Aging, Vol. 16, pp. 409-431, 1995). The IFII fraction was isolated by centrifugation on a sucrose gradient as described in the PhD thesis of C. M. Wischik, and was further extracted into an ‘abc sup’ as described by C. M. Wischik (Thesis “The structure and biochemistry of paired helical filaments in Alzheimer's disease” Part I and II; Cambridge University, 1989).
The assay for ligand activity was performed in 96 well plates (Nunc Cat. No. 236108). The test compound at the required concentration was mixed with PHFs, then primulin was added to give a final concentration of 1 μM and a total volume of 100 μl. The concentration of PHFs added was determined for each preparation to give an adequate fluorescence signal, and was typically in the range 1-2 μl/100 μl. The test compounds were typically dissolved in DMSO to give a final concentration of 10% DMSO in the assay. The control fluorescence, in the absence of PHFs, was also measured in the presence of 10% DMSO.
The fluorescence was measured in a Varian Carey Eclipse Fluorescence Spectrophotometer, with the […] wavelength at 480 nm. Excitation spectra were recorded and corrected by subtraction of the signal measured in the absence of PHFs, using the Varian software. The fluorescence signal at the peak […] wavelength of 420 nm was measured from the corrected spectra. The fluorescence values were plotted as a function of concentration of test compound, and the value for P50 measured from the graph.

Sequence of PHF (paired helical filaments) isolated from the brain of an Alzheimer's disease patient (P10636 623-708 limits assumed): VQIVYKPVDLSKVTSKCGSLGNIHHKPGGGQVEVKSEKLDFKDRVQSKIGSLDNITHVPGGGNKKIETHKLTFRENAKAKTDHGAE

P50	IC50 [nM]	Structure (SMILES)
no effect	–	Cc1ccc2nc(-c3ccc(NC(=O)c4ccccc4N)cc3)sc2c1 [ABAA-04]
no effect	–	Cc1ccc2nc(-c3ccc(NC(=O)c4cccc(N)c4)cc3)sc2c1 [ABAA-05]
–	520	Cc1ccc2nc(-c3ccc(NC(=O)c4ccc(N)cc4)cc3)sc2c1 [ABAA-06]
no effect	–	Cc1ccc2nc(-c3ccc(NC(=O)c4ccccc4N(C)C)cc3)sc2c1 [ABAA-07]
no effect	–	Cc1ccc2nc(-c3ccc(NC(=O)c4cccc(N(C)C)c4)cc3)sc2c1 [ABAA-08]
–	~1200	Cc1ccc2nc(-c3ccc(NC(=O)c4ccccc4)cc3)sc2c1 [ABAA-10]
–	~1200	Cc1ccc2nc(-c3ccc(NC(=O)c4cccc(O)c4)cc3)sc2c1 [ABAA-11]
no effect	–	CNc1cccc(C(=O)Nc2ccc(-c3nc4ccc(C)cc4s3)cc2)c1 [ABAA-12]
–	980	CN(C)CCOc1ccc2nc(-c3ccc(NC(=O)c4ccc([N+](=O)[O-])c(C(F)(F)F)c4)cc3)sc2c1 [ABDMAA-01]
–	> 1000	CN(C)CCOc1ccc2nc(-c3ccc(NC(=O)c4ccc([N+](=O)[O-])c(C(F)(F)F)c4)cc3)sc2c1 [ABDMAA-02]
–	190	O=C(Nc1ccc(-c2nc3ccc(O)cc3s2)cc1)c1ccc([N+](=O)[O-])c(C(F)(F)F)c1 [ABFHA-01]
–	340	Nc1ccc(C(=O)Nc2ccc(-c3nc4ccc(O)cc4s3)cc2)cc1C(F)(F)F [ABFHA-02]
–	100	O=C(Nc1ccc(-c2nc3ccc(O)cc3s2)cc1)c1ccc(OCC(F)(F)F)cc1 [ABFHA-03]
no effect	–	O=C(Nc1ccc(-c2nc3ccc(O)cc3s2)cc1)c1ccc(OCCC(F)(F)F)cc1 [ABFHA-04]
–	400	O=C(Nc1ccc(-c2nc3ccc(O)cc3s2)cc1)c1ccc(OCCCC(F)(F)F)cc1 [ABFHA-05]
–	390	O=C(Nc1ccc(-c2nc3ccc(O)cc3s2)c(O)c1)c1cc(OC(F)(F)F)ccc1O [ABFHA-06]
–	100	O=C(Nc1ccc(-c2nc3ccc(O)cc3s2)c(O)c1)c1ccc(F)cc1 [ABFHA-07]
–	> 1000	O=C(Nc1ccc(-c2nc3ccc(O)cc3s2)cc1)c1ccc(O)cc1C(F)(F)F [ABFHA-08]
–	> 1000	O=C(Nc1ccc(-c2nc3ccc(O)cc3s2)cc1)c1cc(OC(F)(F)F)ccc1O [ABFHA-09]
–	> 1000	O=C(Nc1ccc(-c2nc3ccc(O)cc3s2)c(C(F)(F)F)c1)c1ccc(O)cc1 [ABFHA-10]
–	310	O=C(Nc1ccc(-c2nc3ccc(O)cc3s2)cc1)c1ccc(F)c([N+](=O)[O-])c1 [ABFHA-11]
no effect	–	COc1ccc2nc(-c3ccc(NC(=O)c4ccccc4C(F)(F)F)cc3)sc2c1 [ABFMA-01]
no effect	–	COc1ccc2nc(-c3ccc(NC(=O)c4cccc(C(F)(F)F)c4)cc3)sc2c1 [ABFMA-02]
no effect	–	COc1ccc2nc(-c3ccc(NC(=O)c4ccc(C(F)(F)F)cc4)cc3)sc2c1 [ABFMA-03]

P50	IC50 [nM]	Structure (SMILES)
no effect	–	COc1ccc(C(=O)Nc2ccc(-c3nc4ccc(OC)cc4s3)cc2OC)c(C(F)(F)F)c1 [ABFMA-10]
–	170	COc1ccc2nc(-c3ccc(NC(=O)c4ccc([N+](=O)[O-])c(C(F)(F)F)c4)cc3)sc2c1 [ABFMA-12]
no effect	–	COc1ccc2nc(-c3ccc(NC(=O)c4ccc(OCCCC(F)(F)F)cc4)cc3)sc2c1 [ABFMA-13]
–	430	COc1ccc2nc(-c3ccc(NC(=O)c4ccc(N)c(C(F)(F)F)c4)cc3)sc2c1 [ABFMA-15]
no effect	–	COc1ccc2nc(-c3ccc(NC(=O)c4ccc(N)cc4C(F)(F)F)cc3)sc2c1 [ABFMA-16]
no effect	–	COc1ccc2nc(-c3ccc(NC(=O)c4ccc(N(C)C)cc4C(F)(F)F)cc3)sc2c1 [ABFMA-18]
no effect	–	COc1ccc2nc(-c3ccc(NC(=O)c4ccc(OCC(F)(F)F)cc4)cc3)sc2c1 [ABFMA-19]
–	900	Nc1ccccc1C(=O)Nc1ccc(-c2nc3ccc(O)cc3s2)cc1 [ABHA-01]
–	560	Nc1cccc(C(=O)Nc2ccc(-c3nc4ccc(O)cc4s3)cc2)c1 [ABHA-02]
–	450	Nc1ccc(C(=O)Nc2ccc(-c3nc4ccc(O)cc4s3)cc2)cc1 [ABHA-03]
no effect	–	COc1cc(NC(=O)c2ccccc2N(C)C)ccc1-c1nc2ccc(O)cc2s1 [ABHA-04]
–	870	COc1ccc2nc(-c3ccc(NC(=O)c4ccccc4N)cc3)sc2c1 [ABMA-04]
–	850	COc1ccc2nc(-c3ccc(NC(=O)c4cccc(N)c4)cc3)sc2c1 [ABMA-05]
–	370	COc1ccc2nc(-c3ccc(NC(=O)c4ccc(N)cc4)cc3)sc2c1 [ABMA-06]
–	1350	COc1ccc2nc(-c3ccc(NC(=O)c4ccccc4N(C)C)cc3)sc2c1 [ABMA-07]
–	~1200	COc1ccc2nc(-c3ccc(NC(=O)c4cccc(N(C)C)c4)cc3)sc2c1 [ABMA-08]
–	170	COc1ccc2nc(-c3ccc(NC(=O)c4ccc(N(C)C)cc4)cc3)sc2c1 [ABMA-09]
–	310	COc1ccc2nc(-c3ccc(NC(=O)c4ccc(OC(C)=O)cc4)cc3)sc2c1 [ABMA-10]
–	430	COc1ccc2nc(-c3ccc(NC(=O)c4ccc(O)cc4)cc3)sc2c1 [ABMA-11]
–	310	COc1ccc2nc(-c3ccc(NC(=O)c4ccc(O)c([N+](=O)[O-])c4)cc3)sc2c1 [ABMA-13]
no effect	–	COc1ccc2nc(-c3ccc(NC(=O)c4ccc(F)cc4)cc3)sc2c1 [ABMFMA-01]
–	890	COc1ccc2nc(-c3ccc(NC(=O)c4ccc(F)nc4)cc3)sc2c1 [ABMFMA-02]
–	340	COc1ccc2nc(-c3ccc(NC(=O)c4ccc(Cl)nc4)cc3)sc2c1 [ABMFMA-03]
–	200	COc1ccc2nc(-c3ccc(NC(=O)c4ccc(F)c([N+](=O)[O-])c4)cc3)sc2c1 [ABMFMA-05]

P50	IC50 [nM]	Structure (SMILES)
no effect	–	COc1ccc2nc(-c3ccc(NC(=O)c4ccc(OCCF)cc4)cc3)sc2c1 [ABMFMA-06]
–	> 1000	COc1ccc2nc(-c3ccc(NC(=O)c4ccc(Br)c([N+](=O)[O-])c4)cc3)sc2c1 [ABMFMA-08]
–	210	COc1ccc2nc(-c3ccc(NC(=O)c4ccc(I)c([N+](=O)[O-])c4)cc3)sc2c1 [ABMFMA-09]
no effect	–	CN(C)c1ccc(C(=O)Nc2ccc(-c3cn4cccnc4n3)cc2)cc1 [AIPM-01]
–	> 1000	CN(C)c1ccc(C(=O)Nc2ccc(-c3cn4ccccc4n3)cc2)cc1 [AIPN-01]
–	310	Cc1ccc2nc(-c3ccc(NC(=O)c4ccc(N(C)C)cc4)cc3)cn2c1 [AIPN-02]
no effect	–	Cc1ccc2nc(-c3ccc(NC(=O)c4ccncc4)cc3)cn2c1 [AIPN-03]
no effect	–	Cc1ccc2nc(-c3ccc(NC(=O)c4cccnc4)cc3)cn2c1 [AIPN-04]
–	510	Cc1ccc2nc(-c3ccc(NC(=O)c4ccccn4)cc3)cn2c1 [AIPN-05]
no effect	–	Cc1ccc2nc(-c3ccc(NC(=O)c4ccc(F)nc4)cc3)cn2c1 [AIPN-06]
–	> 1000	Cc1ccc2nc(-c3ccc(NC(=O)c4cccc(F)n4)cc3)cn2c1 [AIPN-07]
–	100	Cc1ccc2nc(-c3ccc(NC(=O)c4ccc([N+](=O)[O-])cc4)cc3)cn2c1 [AIPN-08]
–	340	Cc1ccc2nc(-c3ccc(NC(=O)c4ccc([N+](=O)[O-])c(C(F)(F)F)c4)cc3)cn2c1 [AIPN-09]
–	180	Cc1ccc2nc(-c3ccc(NC(=O)c4ccc(NO)c(C(F)(F)F)c4)cc3)cn2c1 [AIPN-10]
–	660	Cc1ccc2nc(-c3ccc(NC(=O)c4ccc(N)cc4)cc3)cn2c1 [AIPN-11]
–	330	CNc1ccc(C(=O)Nc2ccc(-c3cn4cc(C)ccc4n3)cc2)cc1 [AIPN-12]
–	630	COc1ccc(C(=O)Nc2ccc(-c3cn4cc(C)ccc4n3)cc2)cc1 [AIPN-13]
–	500	Cc1ccc2nc(-c3ccc(NC(=O)c4ccc(O)cc4)cc3)cn2c1 [AIPN-14]
–	> 1000	Cc1ccc2nc(-c3ccc(NC(=O)c4cc(F)c(N(C)C)c(F)c4)cc3)cn2c1 [AIPN-16]
no effect	–	Cc1ccc2nc(-c3ccc(NC(=O)c4ccc(F)c(C(F)(F)F)c4)cc3)cn2c1 [AIPN-17]
–	> 1000	Cc1ccc2nc(-c3ccc(NC(=O)c4ccc(Cl)nc4)cc3)cn2c1 [AIPN-18]
–	270	CNc1ccc(C(=O)Nc2ccc(-c3cn4cc(C)ccc4n3)cc2)cc1F [AIPN-20]
–	460	CNc1c(F)cc(C(=O)Nc2ccc(-c3cn4cc(C)ccc4n3)cc2)cc1F [AIPN-21]
–	760	Cc1ccc2nc(-c3ccc(NC(=O)c4ccc(N(C)C)c(F)c4)cc3)cn2c1 [AIPN-22]
